Experimental data: patent US20040097522A1, “Triazolopyrimidines” (priority 2000, published 2004)

Test: logP determination
Type: physicochemical
Conditions: for logP: Table 1 logP

SMILES | log P (S) (log P (S), stated in the preparation example) | logP
COC(=O)CN(CCCF)c1c(-c2cccc3c2OC(F)(F)O3)c(Cl)nc2ncnn12 [Example 1] | 2.93 | 
CN(C)C(=O)CN(CCCF)c1c(-c2cc(C(F)(F)F)ccc2Cl)c(Cl)nc2ncnn12 [Example 2] |  | 2.77
CN(C)C(=O)CN(CCCF)c1c(-c2cc(C(F)(F)F)ccc2C(F)(F)F)c(Cl)nc2ncnn12 [Example 3] |  | 2.89
CN(C)C(=O)CN(CCCF)c1c(-c2c(Cl)c(F)cc(C(F)(F)F)c2Cl)c(Cl)nc2ncnn12 [Example 4] |  | 3.01
CN(C)C(=O)CN(CCCF)c1c(-c2ccc(C(F)(F)F)cc2F)c(Cl)nc2ncnn12 [Example 5] |  | 2.71
CN(C)C(=O)CN(CCCF)c1c(-c2cc(SC(F)(F)F)ccc2Cl)c(Cl)nc2ncnn12 [Example 6] |  | 3.14
CN(C)C(=O)CN(CCCF)c1c(-c2cccc(C(F)(F)F)c2Cl)c(Cl)nc2ncnn12 [Example 7] |  | 2.71
CN(C)C(=O)CN(CCCF)c1c(-c2cccc3c2OC(F)(F)O3)c(Cl)nc2ncnn12 [Example 8] |  | 2.52
CN(C)C(=O)CN(CCCF)c1c(-c2ccc(C(F)(F)F)c(F)c2F)c(Cl)nc2ncnn12 [Example 9] |  | 2.86
COC(=O)CN(CCCF)c1c(-c2cc(C(F)(F)F)ccc2Cl)c(Cl)nc2ncnn12 [Example 10] |  | 3.23
COC(=O)CN(CCCF)c1c(-c2c(Cl)c(F)cc(C(F)(F)F)c2Cl)c(Cl)nc2ncnn12 [Example 12] |  | 3.58
COC(=O)CN(CCCF)c1c(-c2ccc(C(F)(F)F)cc2F)c(Cl)nc2ncnn12 [Example 13] |  | 3.17
COC(=O)CN(CCCF)c1c(-c2cc(SC(F)(F)F)ccc2Cl)c(Cl)nc2ncnn12 [Example 14] |  | 3.57
COC(=O)CN(CCCF)c1c(-c2cccc(C(F)(F)F)c2Cl)c(Cl)nc2ncnn12 [Example 15] |  | 3.17
COC(=O)CN(CCCF)c1c(-c2ccc(C(F)(F)F)c(F)c2F)c(Cl)nc2ncnn12 [Example 16] |  | 3.29
COC(CN(CCCF)c1c(-c2cc(C(F)(F)F)ccc2Cl)c(Cl)nc2ncnn12)OC [Example 17] |  | 3.54
COC(CN(CCCF)c1c(-c2c(Cl)c(F)cc(C(F)(F)F)c2Cl)c(Cl)nc2ncnn12)OC [Example 19] |  | 3.82
COC(CN(CCCF)c1c(-c2ccc(C(F)(F)F)cc2F)c(Cl)nc2ncnn12)OC [Example 20] |  | 3.41
COC(CN(CCCF)c1c(-c2cc(SC(F)(F)F)ccc2Cl)c(Cl)nc2ncnn12)OC [Example 21] |  | 3.90
COC(CN(CCCF)c1c(-c2cccc(C(F)(F)F)c2Cl)c(Cl)nc2ncnn12)OC [Example 22] |  | 3.42
COC(CN(CCCF)c1c(-c2cccc3c2OC(F)(F)O3)c(Cl)nc2ncnn12)OC [Example 23] |  | 3.24
COC(CN(CCCF)c1c(-c2ccc(C(F)(F)F)c(F)c2F)c(Cl)nc2ncnn12)OC [Example 24] |  | 3.55
CCOC(CN(CCCF)c1c(-c2cc(C(F)(F)F)ccc2Cl)c(Cl)nc2ncnn12)OCC [Example 25] |  | 4.10
CCOC(CN(CCCF)c1c(-c2c(Cl)c(F)cc(C(F)(F)F)c2Cl)c(Cl)nc2ncnn12)OCC [Example 27] |  | 4.45
CCOC(CN(CCCF)c1c(-c2ccc(C(F)(F)F)cc2F)c(Cl)nc2ncnn12)OCC [Example 28] |  | 4.04
CCOC(CN(CCCF)c1c(-c2cc(SC(F)(F)F)ccc2Cl)c(Cl)nc2ncnn12)OCC [Example 29] |  | 4.47
CCOC(CN(CCCF)c1c(-c2cccc(C(F)(F)F)c2Cl)c(Cl)nc2ncnn12)OCC [Example 30] |  | 4.00

SMILES | log P (S) (log P (S), stated in the preparation example) | logP
CCOC(CN(CCCF)c1c(-c2cccc3c2OC(F)(F)O3)c(Cl)nc2ncnn12)OCC [Example 31] |  | 3.81
CCOC(CN(CCCF)c1c(-c2ccc(C(F)(F)F)c(F)c2F)c(Cl)nc2ncnn12)OCC [Example 32] |  | 4.16
CC(=O)CN(CCCF)c1c(-c2cc(C(F)(F)F)ccc2Cl)c(Cl)nc2ncnn12 [Example 33] |  | 3.07
CC(=O)CN(CCCF)c1c(-c2ccc(C(F)(F)F)cc2F)c(Cl)nc2ncnn12 [Example 36] |  | 3.01
CC(=O)CN(CCCF)c1c(-c2cc(SC(F)(F)F)ccc2Cl)c(Cl)nc2ncnn12 [Example 37] |  | 3.42
CC(=O)CN(CCCF)c1c(-c2cccc(C(F)(F)F)c2Cl)c(Cl)nc2ncnn12 [Example 38] |  | 3.01
CC(=O)CN(CCCF)c1c(-c2cccc3c2OC(F)(F)O3)c(Cl)nc2ncnn12 [Example 39] |  | 2.80
CC(=O)CN(CCCF)c1c(-c2ccc(C(F)(F)F)c(F)c2F)c(Cl)nc2ncnn12 [Example 40] |  | 3.14
C=C(Br)CN(CCCF)c1c(-c2cc(C(F)(F)F)ccc2Cl)c(Cl)nc2ncnn12 [Example 41] |  | 3.92
C=C(Br)CN(CCCF)c1c(-c2cc(C(F)(F)F)ccc2C(F)(F)F)c(F)nc2ncnn12 [Example 42] |  | 3.84
C=C(Br)CN(CCCF)c1c(-c2c(Cl)c(F)cc(C(F)(F)F)c2Cl)c(Cl)nc2ncnn12 [Example 43] |  | 4.27
C=C(Br)CN(CCCF)c1c(-c2ccc(C(F)(F)F)cc2F)c(Cl)nc2ncnn12 [Example 44] |  | 3.85
C=C(Br)CN(CCCF)c1c(-c2cc(SC(F)(F)F)ccc2Cl)c(Cl)nc2ncnn12 [Example 45] |  | 4.36
C=C(Br)CN(CCCF)c1c(-c2cccc(C(F)(F)F)c2Cl)c(F)nc2ncnn12 [Example 46] |  | 3.73
C=C(Br)CN(CCCF)c1c(-c2cccc3c2OC(F)(F)O3)c(Cl)nc2ncnn12 [Example 47] |  | 3.69
C=C(Br)CN(CCCF)c1c(-c2ccc(C(F)(F)F)c(F)c2F)c(Cl)nc2ncnn12 [Example 48] |  | 3.94
C=C(Cl)CN(CCCF)c1c(-c2cc(C(F)(F)F)ccc2Cl)c(Cl)nc2ncnn12 [Example 49] |  | 3.84
C=C(Cl)CN(CCCF)c1c(-c2cc(C(F)(F)F)ccc2C(F)(F)F)c(F)nc2ncnn12 [Example 50] |  | 3.77
C=C(Cl)CN(CCCF)c1c(-c2c(Cl)c(F)cc(C(F)(F)F)c2Cl)c(Cl)nc2ncnn12 [Example 51] |  | 4.19
C=C(Cl)CN(CCCF)c1c(-c2ccc(C(F)(F)F)cc2F)c(Cl)nc2ncnn12 [Example 52] |  | 3.77
C=C(Cl)CN(CCCF)c1c(-c2cc(SC(F)(F)F)ccc2Cl)c(Cl)nc2ncnn12 [Example 53] |  | 4.27
C=C(Cl)CN(CCCF)c1c(-c2cccc(C(F)(F)F)c2Cl)c(F)nc2ncnn12 [Example 54] |  | 3.66
C=C(Cl)CN(CCCF)c1c(-c2cccc3c2OC(F)(F)O3)c(Cl)nc2ncnn12 [Example 55] |  | 3.61
C=C(Cl)CN(CCCF)c1c(-c2ccc(C(F)(F)F)c(F)c2F)c(Cl)nc2ncnn12 [Example 56] |  | 3.86
COC(CN(CCCF)c1c(-c2c(F)cc(F)cc2C(F)(F)F)c(Cl)nc2ncnn12)OC [Example 73] |  | 3.22
COC(=O)CN(CCCF)c1c(-c2c(F)cc(F)cc2C(F)(F)F)c(Cl)nc2ncnn12 [Example 74] |  | 2.92
